# Values of other authors, collected in patent US20230210793A1 (priority 2021, published 2023).
smiles,measurement,value
"O=NN(CCCl)C(=O)NCCCl [Carmustine, 1,3-bis(2-chloroethyl)-1-nitrosourea]",solubility in water,poorly soluble
